The record followed here is patent publication US20260306525A1, “COMBINATION THERAPY GLUCOCORTICOIDS AND GINSENOSIDE” (FYTAGORAS B.V., priority 2023, published 2026).

One assay has as its target T1, GR (Homo sapiens, UniProt P04150).
T1 sequence (P04150 1-777): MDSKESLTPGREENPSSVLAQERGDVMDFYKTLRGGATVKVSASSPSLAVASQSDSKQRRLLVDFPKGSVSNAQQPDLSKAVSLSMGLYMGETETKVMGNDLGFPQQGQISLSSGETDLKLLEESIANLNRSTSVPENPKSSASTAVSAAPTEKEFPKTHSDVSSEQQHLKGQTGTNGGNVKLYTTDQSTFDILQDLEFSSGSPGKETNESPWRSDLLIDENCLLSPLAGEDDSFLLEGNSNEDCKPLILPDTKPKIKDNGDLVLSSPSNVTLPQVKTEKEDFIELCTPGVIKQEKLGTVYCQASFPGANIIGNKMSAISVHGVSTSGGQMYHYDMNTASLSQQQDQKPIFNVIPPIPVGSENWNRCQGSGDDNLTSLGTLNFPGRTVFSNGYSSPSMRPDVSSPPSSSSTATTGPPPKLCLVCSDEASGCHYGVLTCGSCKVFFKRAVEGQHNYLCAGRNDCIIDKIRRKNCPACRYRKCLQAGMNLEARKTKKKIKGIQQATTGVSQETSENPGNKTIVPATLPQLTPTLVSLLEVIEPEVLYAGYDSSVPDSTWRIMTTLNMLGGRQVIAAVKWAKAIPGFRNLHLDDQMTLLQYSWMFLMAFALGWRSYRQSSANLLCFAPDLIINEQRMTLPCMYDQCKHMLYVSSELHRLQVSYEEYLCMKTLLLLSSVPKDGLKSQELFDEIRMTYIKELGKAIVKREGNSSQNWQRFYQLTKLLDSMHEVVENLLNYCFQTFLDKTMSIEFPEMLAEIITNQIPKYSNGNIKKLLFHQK
In words: PolarScreen Glucocorticoid Receptor competitive binding assay. The arrangement: followed by GR Full Length (partially purified receptor in storage buffer); purchased ThermoFisher Scientific. How it is done: To determine the relative binding affinities of the different compounds for the human GR in vitro, the PolarScreen™ Glucocorticoid Receptor Competitor Assay Kit (ThermoFisher Scientific, Waltham, MA, USA) was used following the manufacturer's instructions. Briefly, test compounds were first dissolved in DMSO to a 10 mM stock concentration and further diluted in GR buffer (100 mM potassium phosphate (pH 7.4), 200 mM Na2MoO4, 1 mM EDTA, and 20% DMSO). Serial dilutions of the compounds were transferred to a Corning® black 384-well plate and Fluormone GS red™ was added, followed by GR Full Length (partially purified receptor in storage buffer). The plate was incubated for 4 h at RT in the dark and fluorescence polarization was measured with a CLARIOStar Microplate Reader (BMG Labtech, Ortenberg, Germany). Obtained values were normalized to the assay maximum (no ligand) and minimum control (10 µM dexamethasone), and relative percentages of polarization were determined. Dose-response curves were fitted enabling the calculations of IC50 values for each compound.

The subject of the next assay is mmp9. Description: qPCR mmp9 expression in zebrafish larvae. In kind it is in vivo, zebrafish (Danio rerio). To be noted: Example 2, wounded larvae. The method, then:
To determine mRNA levels of specific genes in zebrafish, 3 dpf larvae were used (wounded and non-wounded) and after 6 h of chemical treatments (2 h pre-wounding, 4 h post-wounding), as indicated. Per sample, groups of 15 larvae were collected in TRIzol reagent (Thermo Fisher Scientific, Waltham, MA, USA), and total RNA was isolated using the miRNeasy mini kit (Qiagen, Hilden, Germany). For similar experiments in Hela cells, cells were seeded in 6 well plates, and after 6 h of chemical treatment, the cells were removed from the wells using TRIzol reagent, and total RNA was isolated using the miRNeasy mini kit according to the manufacturer's instructions. The RNA samples were DNAse-treated utilizing the DNA-free™ DNA Removal Kit (Thermo Fisher Scientific). The cDNA synthesis was performed using the iScript cDNA synthesis kit (Bio-Rad Laboratories, Hercules, CA, USA) using 1 μg of RNA per sample. For the PCR reactions, 10 μM of forward and 10 μM of reverse primer, 12.5 μl of iQ SYBR Green Supermix (Bio-Rad), and 2 μl of cDNA were added to the qPCR reaction mixture. […] Cycle threshold values (Ct values, i.e. the cycle numbers at which a threshold value of the fluorescence intensity was reached) were determined for each sample. […] The fold change per sample (compared to the respective control group) was calculated using the ΔΔCt method.
On the technique in general: Quantitative PCR measures a nucleic acid by following its amplification.

For the compound `CC(C)=CCC[C@](C)(O[C@@H]1O[C@H](CO)[C@@H](O)[C@H](O)[C@H]1O)[C@H]1CC[C@]2(C)[C@@H]1[C@H](O)C[C@@H]1[C@@]3(C)CC[C@H](O)C(C)(C)[C@@H]3[C@@H](O[C@@H]3O[C@H](CO)[C@@H](O)[C@H](O)[C@H]3O)C[C@]12C` [Rg1, (3β,6α, 12β)-3,12-Dihydroxydammar-24-ene-6,20-diyl bis-β-D-glucopyranoside], the 50% inhibitory concentration (IC50) (usually the concentration needed to halve the response being measured) at GR (fluorescence polarization, 4 h at RT) stood at 22 µM. At GR (vs beclomethasone), the “relative GR binding affinity, times lower than beclomethasone” value is reported as ~ 4,000 times.

With `C[C@H]1C[C@H]2[C@@H]3CCC4=CC(=O)C=C[C@]4(C)[C@@]3(Cl)[C@@H](O)C[C@]2(C)[C@@]1(O)C(=O)CO` [beclomethasone, reference compound], the mmp9 expression entry with mmp9 is “suppressed the expression levels of il1b, il6 and mmp9, similarly to Bec”.
